Values quoted from earlier work as cited in US8680084B2, “Oral contraceptives to prevent pregnancy and diminish premenstrual symptomatology” (Teva Women's Health, Inc., priority 2001, dated 2014).

Legend:
[1] = for amount roughly equivalent to 1 mg of levonorgestrel: progestin potency relative to levonorgestrel; for amount roughly equivalent to 30 μg of ethinyl estradiol: estrogen potency relative to ethinyl estradiol
PMDD = conditions: daily dose of either 20 mg or 60 mg; randomized, placebo-controlled trials

Structure (SMILES): C#C[C@]1(O)CC[C@H]2[C@@H]3CCC4=CC(=O)CC[C@@H]4[C@H]3C(=C)C[C@@]21CC [3-ketodesogestrel]
- amount roughly equivalent to 1 mg of levonorgestrel [1]: ~1 mg

Structure (SMILES): C[C@]12CC[C@@H]3c4ccc(O)cc4CC[C@H]3[C@@H]1CC[C@@H]2O [17β-estradiol]
- amount roughly equivalent to 30 μg of ethinyl estradiol [1]: ~2 mg

Structure (SMILES): CNCCC(Oc1ccc(C(F)(F)F)cc1)c1ccccc1 (stereo not shown) [Fluoxetine, fluoxetine]
- reducing symptoms of PMDD versus placebo (PMDD): superior to placebo

Structure (SMILES): C#C[C@]1(O)CC[C@H]2[C@@H]3CCC4=CCCC[C@@H]4[C@H]3C(=C)C[C@@]21CC [desogestrel]
- amount roughly equivalent to 1 mg of levonorgestrel [1]: ~1 mg

Structure (SMILES): C#C[C@]1(O)C=C[C@H]2[C@@H]3CCC4=CC(=O)CC[C@@H]4[C@H]3CC[C@@]21CC [gestodene]
- amount roughly equivalent to 1 mg of levonorgestrel [1]: about 0.7 mg

Structure (SMILES): C#C[C@]1(O)CC[C@H]2[C@@H]3CCc4cc(OC)ccc4[C@H]3CC[C@@]21C [mestranol]
- amount roughly equivalent to 30 μg of ethinyl estradiol [1]: ~0.06 mg

Structure (SMILES): C#C[C@]1(OC(C)=O)CC[C@H]2[C@@H]3CCC4=CC(=O)CC[C@@H]4[C@H]3CC[C@@]21C [norethindrone acetate]
- amount roughly equivalent to 1 mg of levonorgestrel [1]: about 3.5 mg
